In patent US20040247604A1, “Anti-inflamatory fatty alcohols and fatty acid esters useful as antigen carriers” (priority 2001, published 2004):
“And” between values parts separate entries of the source, which are not always exact repeats. Equal values may be shown once.

System: adjuvant arthritis
Experiment: Protection against adjuvant arthritis (AA): inhibition of joint inflammation
Assay type: in vivo, Lewis rats
Conditions: for % Inhibition of inflammation of adjuvant arthritis: 100 μl, subcutaneously once (14 days before or day 12 after induction of AA), day of maximal inflammation; for inflammation suppressed on day of peak disease: day 26

Compound | % Inhibition of inflammation of adjuvant arthritis (Lewis rats) | also measured
CCCCCCCC/C=C\CCCCCCCC(=O)OC [Methyl oleate] | 76% | –
CCCCCCCC/C=C\CCCCCCCCO [Oleyl alcohol, cis-9-octadecenol] | 78%-96% | inflammation suppressed on day of peak disease (10 μl SC once 14 days before induction of AA): 14%; inflammation suppressed on day of peak disease (50 μl SC once 14 days before induction of AA): 61%; inflammation suppressed on day of peak disease (100 μl SC once 14 days before induction of AA): 78%; inflammation suppressed on day of peak disease (500 μl SC once 14 days before induction of AA): 90%; suppression of the inflammation (500 μl oleyl alcohol, two further experiments, Lewis rats): 96% and 91%
CCC=CCC=CC/C=C\CCCCCCCCO [Linolenyl alcohol, cis-9,12,15-octadecatrienol] | 75% | –
CCCCCCCC/C=C\CCCCCCCC(=O)O [oleic acid, cis-9-octadecenoic acid, reference compound] | no effect | –
CCCCCCCCCCCCCCCCO [Cetyl alcohol] | 66% | –
CCCCCCCC/C=C\CCCCCCCC(=O)OCC [Ethyl oleate] | 92% | –
Mannose monooleate | 95% | –
CCCCCCCC/C=C\CCCCCCCC(=O)OCC(O)CO (stereo not shown) [Glycerol mono-oleate] | 98% | –
